Test results published in PubChem BioAssay (NCI).
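Test compounds were applied to cells in 96-well plates for 48 hours at 5 doses. TGI: total growth inhibition.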 Where a SMILES comes first, the peptide text is derived from it. [ ]: non-standard residue; d: D form. The star is where a group is joined. X28 = COC1=CC(=O)N(C(=O)[C@@H](O*)C(C)C)[C@H]1Cc1ccccc1; NMeV = CN[C@H](C(=O)O)C(C)C; Hexanoyl = CCCCCC(=O)*

Columns and labels:
Assay in all cases: inhibition of tumour cell growth, NCI panel, 48 h
[1] = system: BT-549 breast
[2] = system: HCC-2998 colon
[3] = system: KM12 colon
[4] = system: MDA-MB-231 breast
[5] = system: MDA-MB-435
[6] = system: OVCAR-4 ovarian
[7] = system: RPMI-8226 leukemia
[8] = system: SF-295 CNS
[9] = system: SK-MEL-2 melanoma
[10] = system: SK-MEL-28 melanoma
[11] = system: SK-MEL-5 melanoma
[12] = system: SN12C renal
[13] = system: SNB-75 CNS
[14] = system: SR leukemia
[15] = system: TK-10 renal
[16] = system: UACC-257 melanoma
[17] = system: UACC-62 melanoma
[18] = system: CCRF-CEM leukemia
[19] = system: HL-60(TB) leukemia

Structure (SMILES): C[n+]1c2ccccc2c(C(=O)Nc2ccc(S(=O)(=O)Nc3ccnn3-c3ccccc3)cc2)c2ccccc21
- TGI [1]: > 100 µM
- TGI [2]: > 100 µM
- TGI [3]: > 100 µM
- TGI [4]: > 100 µM
- TGI [5]: > 100 µM
- TGI [6]: > 100 µM
- TGI [7]: > 100 µM
- TGI [8]: > 100 µM
- TGI [9]: > 100 µM
- TGI [10]: > 100 µM
- TGI [11]: > 100 µM
- TGI [12]: > 100 µM
- TGI [13]: > 100 µM
- TGI [14]: > 100 µM
- TGI [15]: > 100 µM
- TGI [16]: > 100 µM
- TGI [17]: > 100 µM

Structure (SMILES): O=C(/C=C/c1csc(-c2ccccc2)n1)NCc1ccc(C(=O)NCCc2ccccc2)cc1
- TGI [1]: > 100 µM
- TGI [18]: > 100 µM
- TGI [2]: > 100 µM
- TGI [3]: > 100 µM
- TGI [4]: 55.6 µM
- TGI [5]: > 100 µM
- TGI [6]: > 100 µM
- TGI [7]: > 100 µM
- TGI [8]: 30.9 µM
- TGI [9]: > 100 µM
- TGI [10]: > 100 µM
- TGI [11]: > 100 µM
- TGI [12]: > 100 µM
- TGI [13]: 8.31 µM
- TGI [14]: > 100 µM
- TGI [15]: 38.2 µM
- TGI [16]: > 100 µM
- TGI [17]: > 100 µM

Structure (SMILES): NC(=O)N=C(N(Cc1ccccc1)Cc1ccccc1)N(Cc1ccccc1)Cc1ccccc1
- TGI [1]: > 100 µM
- TGI [18]: > 100 µM
- TGI [2]: > 100 µM
- TGI [3]: > 100 µM
- TGI [4]: > 100 µM
- TGI [5]: > 100 µM
- TGI [6]: > 75.6 µM
- TGI [7]: > 100 µM
- TGI [8]: 35.1 µM
- TGI [9]: > 100 µM
- TGI [10]: > 100 µM
- TGI [11]: > 100 µM
- TGI [12]: > 100 µM
- TGI [13]: 81.8 µM
- TGI [14]: > 100 µM
- TGI [15]: > 100 µM
- TGI [16]: > 100 µM
- TGI [17]: > 100 µM

Structure (SMILES): CCCC1(NC(=O)C(F)(F)F)CC(OC)OC2COC(c3ccccc3)OC21 (stereo not drawn)
- TGI [1]: > 100 µM
- TGI [18]: > 100 µM
- TGI [2]: > 100 µM
- TGI [19]: 95.3 µM
- TGI [4]: > 100 µM
- TGI [5]: > 100 µM
- TGI [6]: > 100 µM
- TGI [8]: > 100 µM
- TGI [9]: > 100 µM
- TGI [10]: > 100 µM
- TGI [11]: 45.2 µM
- TGI [12]: > 100 µM
- TGI [13]: > 100 µM
- TGI [14]: > 100 µM
- TGI [16]: > 100 µM
- TGI [17]: > 100 µM

Structure (SMILES): C=CCOc1ccc(/C(N=Nc2ccc([N+](=O)[O-])cc2)=N/NC(=O)c2ccccc2)cc1OC
- TGI [1]: > 100 µM
- TGI [18]: > 100 µM
- TGI [2]: > 100 µM
- TGI [19]: > 100 µM
- TGI [3]: > 100 µM
- TGI [4]: > 100 µM
- TGI [5]: > 100 µM
- TGI [6]: > 100 µM
- TGI [8]: > 100 µM
- TGI [9]: > 100 µM
- TGI [10]: > 100 µM
- TGI [11]: > 100 µM
- TGI [12]: > 100 µM
- TGI [13]: > 100 µM
- TGI [14]: > 100 µM
- TGI [15]: > 100 µM
- TGI [16]: > 100 µM
- TGI [17]: > 100 µM

Structure (SMILES): CC[C@H]1C=CCC[C@@]2(C[C@@H]3CC[C@@H]4[C@H](C(=O)OCCCCCCCCCCCCCCCC(=O)O)[C@]5(CCC[C@@H](C)O5)NC(=[N+]34)N2)O1
- TGI [1]: 6.9 µM
- TGI [18]: 0.0215 µM
- TGI [2]: 0.283 µM
- TGI [19]: 0.636 µM
- TGI [3]: 5.76 µM
- TGI [4]: 9.09 µM
- TGI [5]: 6.27 µM
- TGI [6]: 6.47 µM
- TGI [7]: 0.582 µM
- TGI [8]: 2.09 µM
- TGI [9]: 0.347 µM
- TGI [10]: 5.3 µM
- TGI [11]: 0.251 µM
- TGI [12]: 7.93 µM
- TGI [14]: 0.357 µM
- TGI [15]: 8.73 µM
- TGI [17]: 0.179 µM

Structure (SMILES): COC12OC3(C4OC41)C(C(=O)O[C@H]3CO[Si](C)(C)C(C)(C)C)C2C(=O)Oc1ccccc1 (stereo partly drawn)
- TGI [1]: > 100 µM
- TGI [18]: > 100 µM
- TGI [2]: > 100 µM
- TGI [3]: > 100 µM
- TGI [4]: > 100 µM
- TGI [5]: > 100 µM
- TGI [6]: > 100 µM
- TGI [7]: > 100 µM
- TGI [8]: > 100 µM
- TGI [9]: > 100 µM
- TGI [10]: > 100 µM
- TGI [11]: > 100 µM
- TGI [12]: > 100 µM
- TGI [13]: > 100 µM
- TGI [14]: > 100 µM
- TGI [15]: > 100 µM
- TGI [16]: > 100 µM
- TGI [17]: > 100 µM

Structure (SMILES): C/C(=N/NC(=S)Nc1ccc([N+](=O)[O-])cc1)c1cccc(/C(C)=N\NC(=S)Nc2ccc([N+](=O)[O-])cc2)n1
- TGI [1]: 2.36 µM
- TGI [18]: > 55.8 µM
- TGI [2]: 21.5 µM
- TGI [3]: > 35.7 µM
- TGI [4]: 17.7 µM
- TGI [5]: > 38.7 µM
- TGI [6]: 49.4 µM
- TGI [7]: 8.8 µM
- TGI [8]: 8.33 µM
- TGI [9]: 23.6 µM
- TGI [10]: > 100 µM
- TGI [11]: 7.29 µM
- TGI [12]: 14.4 µM
- TGI [13]: > 44.3 µM
- TGI [14]: 2.33 µM
- TGI [15]: 15.7 µM
- TGI [16]: 13.1 µM
- TGI [17]: 2.87 µM

Structure (SMILES): CCOC(=O)C1(C(=O)OCC)Nc2cccnc2N(C)N1
- TGI [1]: > 100 µM
- TGI [18]: 44.6 µM
- TGI [19]: 58 µM
- TGI [3]: > 100 µM
- TGI [4]: 40.4 µM
- TGI [5]: 36 µM
- TGI [6]: 34.3 µM
- TGI [7]: 40.8 µM
- TGI [8]: > 100 µM
- TGI [9]: 37 µM
- TGI [10]: 93.8 µM
- TGI [11]: 34.2 µM
- TGI [12]: 36 µM
- TGI [13]: > 100 µM
- TGI [14]: > 100 µM
- TGI [15]: 40.1 µM
- TGI [16]: 32.3 µM
- TGI [17]: 35.2 µM

Structure (SMILES): CCOC(=O)C1=[N+]([O-])OC2=C(O)CCCC21 (stereo not drawn)
- TGI [1]: > 100 µM
- TGI [18]: > 100 µM
- TGI [2]: > 100 µM
- TGI [3]: > 100 µM
- TGI [4]: > 100 µM
- TGI [5]: > 100 µM
- TGI [6]: > 100 µM
- TGI [7]: > 100 µM
- TGI [8]: > 100 µM
- TGI [9]: > 100 µM
- TGI [10]: > 100 µM
- TGI [11]: > 100 µM
- TGI [12]: > 100 µM
- TGI [13]: > 100 µM
- TGI [14]: > 100 µM
- TGI [15]: > 100 µM
- TGI [16]: > 100 µM
- TGI [17]: > 100 µM

Structure (SMILES): N=c1oc2c(Cl)cc(Cl)cc2cc1C(=O)Nc1cccc2ccccc12
- TGI [1]: > 100 µM
- TGI [18]: 14.4 µM
- TGI [2]: > 59.6 µM
- TGI [19]: > 100 µM
- TGI [3]: > 100 µM
- TGI [4]: 11.3 µM
- TGI [5]: > 100 µM
- TGI [6]: 6.37 µM
- TGI [7]: 53.3 µM
- TGI [8]: 96.9 µM
- TGI [10]: > 100 µM
- TGI [11]: > 100 µM
- TGI [12]: 12.8 µM
- TGI [13]: 10.9 µM
- TGI [14]: > 21.1 µM
- TGI [15]: 4.71 µM
- TGI [16]: > 100 µM
- TGI [17]: > 100 µM

Structure (SMILES): O=S(=O)(O)c1ccc2cccc(N=Nc3c(O)ccc4ccccc34)c2c1
- TGI [1]: > 100 µM
- TGI [18]: > 100 µM
- TGI [2]: > 100 µM
- TGI [19]: > 100 µM
- TGI [3]: > 100 µM
- TGI [4]: > 100 µM
- TGI [5]: > 100 µM
- TGI [6]: > 100 µM
- TGI [8]: > 100 µM
- TGI [9]: > 100 µM
- TGI [11]: > 100 µM
- TGI [12]: > 100 µM
- TGI [13]: > 100 µM
- TGI [14]: > 100 µM
- TGI [15]: > 100 µM
- TGI [16]: > 100 µM
- TGI [17]: > 100 µM

Structure (SMILES): CCCCCC(=O)N[C@H](C(=O)N[C@H](C(=O)N(C)[C@H](C(=O)N1CCC[C@H]1C(=O)N1CCC[C@H]1C(=O)O[C@H](C(=O)N1C(=O)C=C(OC)[C@@H]1Cc1ccccc1)C(C)C)C(C)C)C(C)C)C(C)C (Hexanoyl-VV[NMeV]PP-X28)
- TGI [1]: > 100 µM
- TGI [18]: > 100 µM
- TGI [2]: > 100 µM
- TGI [19]: > 100 µM
- TGI [3]: > 100 µM
- TGI [4]: > 100 µM
- TGI [5]: > 100 µM
- TGI [6]: > 100 µM
- TGI [7]: > 100 µM
- TGI [8]: > 100 µM
- TGI [9]: > 100 µM
- TGI [10]: > 100 µM
- TGI [12]: > 100 µM
- TGI [13]: 38.5 µM
- TGI [15]: > 100 µM
- TGI [16]: > 100 µM
- TGI [17]: > 100 µM
